# Article PMC10323144, “Garbage in, garbage out: how reliable training data improved a virtual screening approach against SARS-CoV-2 MPro” (Frontiers in Pharmacology, 2023)
# Values joined by “and” are separate entries in the source; they are usually repeats but may differ in a detail not shown here. Equal entries are not always repeated. Where two headings read alike, the source gives them in different places. Marks after values point to notes of the source that are not given here.
# Assays:
# [1] = Cytotoxicity assay, WST-1; settings: human, CC50 A549 cells
# [2] = target: SARS-CoV-2 MPro (Severe acute respiratory syndrome coronavirus 2, UniProt P0DTD1); experiment: MPro activity assay (de-quenching of Edans fluorescence on cleavage of a Dabcyl/Edans peptide); assay type: biochemical; settings: for IC50: 60 min pre-incubation, 5 μM substrate
# [3] = test system: human lung cell line A549; experiment: Cytotoxicity assay, WST-1; settings: read-out: CC50 A549 cells, 24 h
# [4] = in vitro; settings: African green monkey
# [5] = test system: SARS-CoV-2 (βCoV/KOR/KCDC03/2020); experiment: microbe, parasite or virus in culture; assay type: cell-based
# [6] = test system: Vero cells
# [7] = test system: MPro; settings: compiled from peer-reviewed sources (287 compounds) ref the 18 original articles; cited from earlier work
# [8] = test system: SARS-CoV-2; set-up: method as in Henss et al., 2021; settings: 72 h assay ref Henss et al., 2021, cited from earlier work
# [9] = Severe acute respiratory syndrome coronavirus 2, Vero, 24 h
# [10] = Severe acute respiratory syndrome coronavirus 2, Vero, read-out: inhibition of viral replication
SMILES,CC50 at 24 h [1] [µM],CC50 [4] [µM],IC50 [2],IC50 [5] [µM],"IC50 [5, 9] [µM]",other results
[O-][n+]1onc2ccc(/C=C\c3ccc(Cl)cc3)cc21 [2d],> 50,,,,,activity at 25 µM ([2]; read-out: MPro activity (%)): 53.2 ± 0.2%
[O-][n+]1onc2ccc(/C=C/Sc3ccc(Cl)cc3)cc21 [3d],≤ 50,15.2,0.73 ± 0.16 µM,8.3,~8,CC50 [3]: < 50 µM
[O-][n+]1onc2ccc(/C=C/[S+]([O-])c3ccc(Cl)cc3)cc21 (stereo not shown) [4d],≤ 50,15.2,0.121 ± 0.002 µM,7.3,~8,CC50 [3]: 50 to 100 µM
O=C(/C=C/c1ccc2no[n+]([O-])c2c1)c1ccc(Cl)cc1 [5d],> 50,> 50,0.64 ± 0.02 µM,43.2,~44,
O=C(OC[C@H]1O[C@@H]([S+]([O-])c2ccccc2)[C@H](OC(=O)c2ccccc2)[C@@H](OC(=O)c2ccccc2)[C@@H]1OC(=O)c1ccccc1)c1ccccc1 (stereo partly shown) [7a],,> 50,20.2 ± 1.9 µM,,> 50,"inhibition at 25 µM ([5]; Severe acute respiratory syndrome coronavirus 2, Vero, at 25 μM, read-out: inhibition of viral replication): 15%; inhibition at 50 µM [5, 10]: 21%"
Nc1ccc(S(=O)(=O)c2ccc(Nc3c([N+](=O)[O-])c(Cl)cc4c3no[n+]4[O-])cc2)cc1 [22d],> 100,> 50,0.37 ± 0.085 µM,44.8,~44,
O=C(/C=C/c1cccc2ccccc12)c1c(O)ccc2ccccc12 [28d],> 100,> 50,1.4 µM and 1.35 µM,,48.9,impairment of cell viability ([6]; African green monkey): ~25%
O=c1c(Cl)c(Cl)cnn1Cc1nc2ccccc2c2ccccc12 [39d],,,2 µM,,,"impairment of cell viability ([6]; at 50 μM): 13%; inhibition at 50 µM [5, 10]: 18%"
O=c1c(Cl)c(Cl)cnn1Cc1nc2ccccc2c2ccccc12 [Cpd 39],50 to 100,> 50,1.97 ± 0.5 µM,,> 50,"Class (MPro activity class) ([2]; in-house acquired data, internal screening under standardized conditions (128 compounds)): 0 (compounds with IC50 > 20 μM, percentage inhibition <80% at 20 µM or 50 μM, or percentage enzyme inhibition <50% at 10 µM were labelled as INACTIVE)"
O=c1c2ccccc2[se]n1-c1ccccc1 [Ebselen],> 100,> 50,,9.7,10,
Cc1cccc(C)c1OCC(=O)N[C@@H](Cc1ccccc1)[C@@H](O)C[C@H](Cc1ccccc1)NC(=O)[C@H](C(C)C)N1CCCNC1=O [Lopinavir],,> 150,,21.5,22,"Class (MPro activity class) [7]: 0 (compounds with IC50 > 20 μM, percentage inhibition <80% at 20 µM or 50 μM, or percentage enzyme inhibition <50% at 10 µM were labelled as INACTIVE)"
CCC(CC)COC(=O)[C@H](C)N[P@](=O)(OC[C@H]1O[C@@](C#N)(c2ccc3c(N)ncnn23)[C@H](O)[C@@H]1O)Oc1ccccc1 [Remdesivir],,> 50,,7.8,8,"Class (MPro activity class) [7]: 0 (compounds with IC50 > 20 μM, percentage inhibition <80% at 20 µM or 50 μM, or percentage enzyme inhibition <50% at 10 µM were labelled as INACTIVE); SI: selectivity index = CC50 mammalian cell/IC50 SARS-CoV-2 [6]: >50 (>6.4) ^a"
O=C(/C=C/c1ccc2ccccc2c1)c1ccccc1O [compound 25],> 50,38.8,0.46 ± 0.21 µM,17.5,,
O=C(O[C@@H]1Cc2c(O)cc(O)cc2O[C@@H]1c1cc(O)c(O)c(O)c1)c1cc(O)c(O)c(O)c1 [epigallocatechin gallate],,,,,,IC50 SARS-CoV-2 replication [8]: 1.73 µg/mL; IC50 ([8]; read-out: IC50 SARS-CoV-2 replication): 3.9 µM
